From ChEMBL document CHEMBL1125044, “1,2,4-Diazaphosphole nucleosides. Synthesis, structure, and antitumor activity of nucleosides with a lambda 3 phosphorus atom” (J Med Chem, 1990)
Active and inactive are the calls of the source. The rule behind the calls is not given here.

Assays:
[1] = Lethal dose in L1210-bearing female BDF1 mice; type: toxicity, organism-based; settings: BDF1, mouse, in vivo
[2] = In vitro antiviral activity against number of DNA virus was reported; Inactive; type: functional
[3] = In vitro antiviral activity against number of RNA virus was reported; Inactive; type: functional
Mus musculus [4] = test: Compound was tested against L1210 infected BDF1 mice at 480 mg/kg expressed as percent increase in life span; type: functional
Mus musculus [5] = species on record: Mus musculus; test: Compound was tested against L1210 infected BDF1 mice expressed as weight change at 24 hour; type: functional
Mus musculus [6] = species on record: Mus musculus; test: Compound was tested against L1210 infected BDF1 mice expressed as weight change at 72 hour; type: functional

NC(=O)c1nn(C2O[C@H](CO)[C@@H](O)[C@H]2O)cp1 (stereo partly specified)
LD50 [1]: 480 mg/kg
Activity [2]: inactive
Activity [3]: inactive

NC(=S)c1nn(C2O[C@H](CO)[C@@H](O)[C@H]2O)cp1 (stereo partly specified)
ILS at 480 mg/kg (Mus musculus [4]): 25%
Weight change (Mus musculus [5]): -1.67 g
Weight change (Mus musculus [6]): -0.67 g
